# Where two headings read alike, the source gives them in different places.
# What was measured:
# Assay type in all cases: in vivo
# snap beans = test: Greenhouse pre-emergence GR15/GR85 selectivity test; settings: Table VI
# From the text: A good grade of top soil is placed in aluminum pans and compacted to a depth of three-eighths to one-half inch from the top of the pan. On the top of the soil is placed a number of seeds or vegetative propagules of various plant species. The soil required to level fill the pans after seeding or adding vegetative propagules is weighed into a pan. The soil and a known amount of the active ingredient applied in a solvent or as a wettable powder suspension are thoroughly mixed, and used to cover the prepared pans. After treatment, the pans are given an initial overhead irrigation of eater, equivalent to one-fourth inch (0.64 cm) rainfall, then watered by subirrigation as need to give adequate moisture for germination and growth. As an alternative procedure, the overhead irrigation may be omitted. Observations are made about 2-3 weeks after seeding and treatment.
# In the discussion and tables of data below, reference is made to herbicide application rates symbolized as "GR15 " and "GR85 "; these rates are given in kilograms per hectare (kg/ha) which are convertible into pounds per acre (lbs/A) by dividing the kg/ha rate by 1.12.
# A further guide to the effectiveness of a chemical as a selective herbicide is the "selectivity factor" ("SF") for a herbicide in given crops and weeds. […]
# Barnyardgrass = test: Field pre-emergence selectivity test; settings: Echinochloa crus-galli, 1008 h, 6 weeks, read-out: Percent Inhibition; for inhibition at 560 g/ha: 0.56 Kg/Ha; for inhibition at 1120 g/ha: 1.12 Kg/Ha; for inhibition at 2240 g/ha: 2.24 Kg/Ha; for inhibition at 4480 g/ha: 4.48 Kg/Ha
# Method: (§1) The compound of Examples 1 and 2 was also tested in the field to determine its pre-emergence selectivity against foxtail (spp), barnyardgrass, wild proso millet, smartweed, lambsquarters and pigweed in a plurality of crops; the data (representing three replicate runs) are shown in Table VII for both surface application (S.A.) and soil incorporation (PPI, i.e., preplant incorporation) of the herbicide. The seeds were planted in a fine seedbed of silt loam of intermediate moisture. The seeds were planted at a depth of two inches (5.08 cm). First rainfall (0.2"; 0.51 cm) occurred the day following treatment, the second rain (0.25"; […]) two days after treatment; cumulative rainfall 22 days after treatment was 1.8" (4.57 cm). Observations were made 6 weeks after treatment.
# Smartweed = test: Field pre-emergence selectivity test; settings: 1008 h, 6 weeks, read-out: Percent Inhibition; for inhibition at 1120 g/ha: 1.12 Kg/Ha; for inhibition at 2240 g/ha: 2.24 Kg/Ha
# Method: as §1
# foxtail (spp) = test: Field pre-emergence selectivity test; settings: Setaria, 1008 h, 6 weeks, read-out: Percent Inhibition; for inhibition at 560 g/ha: 0.56 Kg/Ha; for inhibition at 1120 g/ha: 1.12 Kg/Ha; for inhibition at 2240 g/ha: 2.24 Kg/Ha; for inhibition at 4480 g/ha: 4.48 Kg/Ha
# Method: as §1
# Field Corn = test: Field pre-emergence selectivity test; settings: Zea mays, 1008 h, 6 weeks, read-out: Percent Inhibition; for inhibition at 560 g/ha: 0.56 Kg/Ha; for inhibition at 1120 g/ha: 1.12 Kg/Ha; for inhibition at 2240 g/ha: 2.24 Kg/Ha; for inhibition at 4480 g/ha: 4.48 Kg/Ha
# Method: as §1
compound,measurement,setting,value
"CC(C)OCN(C(=O)CCl)c1ccccc1C(F)(F)F [Example 2, N--(isopropoxymethyl)-2'-trifluoromethyl-2-chloroacetanilide]",GR15 Rate,snap beans,2.2 Kg/Ha
same,inhibition at 560 g/ha,Barnyardgrass; P.P.I.,85%
same,inhibition at 1120 g/ha,Barnyardgrass; P.P.I.,88%
same,inhibition at 2240 g/ha,Barnyardgrass; P.P.I.,95%
same,inhibition at 4480 g/ha,Barnyardgrass; P.P.I.,100%
same,inhibition at 560 g/ha,Barnyardgrass; S.A.,50%
same,inhibition at 1120 g/ha,Barnyardgrass; S.A.,87%
same,inhibition at 2240 g/ha,Barnyardgrass; S.A.,90%
same,inhibition at 4480 g/ha,Barnyardgrass; S.A.,97%
same,inhibition at 1120 g/ha,Smartweed; P.P.I.,75%
same,inhibition at 2240 g/ha,Smartweed; P.P.I.,95%
same,inhibition at 560 g/ha,"Smartweed; S.A., 0.56 Kg/Ha",0%
same,inhibition at 1120 g/ha,Smartweed; S.A.,10%
same,inhibition at 2240 g/ha,Smartweed; S.A.,20%
same,inhibition at 4480 g/ha,"Smartweed; S.A., 4.48 Kg/Ha",63%
same,inhibition at 560 g/ha,foxtail (spp); P.P.I.,77%
same,inhibition at 1120 g/ha,foxtail (spp); P.P.I.,78%
same,inhibition at 2240 g/ha,foxtail (spp); P.P.I.,87%
same,inhibition at 4480 g/ha,foxtail (spp); P.P.I.,100%
same,inhibition at 560 g/ha,foxtail (spp); S.A.,50%
same,inhibition at 1120 g/ha,foxtail (spp); S.A.,85%
same,inhibition at 2240 g/ha,foxtail (spp); S.A.,90%
same,inhibition at 4480 g/ha,foxtail (spp); S.A.,97%
same,inhibition at 560 g/ha,Field Corn; P.P.I.,0%
same,inhibition at 1120 g/ha,Field Corn; P.P.I.,0%
same,inhibition at 2240 g/ha,Field Corn; P.P.I.,0%
same,inhibition at 4480 g/ha,Field Corn; P.P.I.,13%
same,inhibition at 560 g/ha,Field Corn; S.A.,0%
same,inhibition at 1120 g/ha,Field Corn; S.A.,0%
same,inhibition at 2240 g/ha,Field Corn; S.A.,0%
same,inhibition at 4480 g/ha,Field Corn; S.A.,10%

# Reference: patent US4731109A, “Herbicidal 2-haloacetanilides” (Monsanto Company, priority 1982, dated 1988)
